{"source": "the supplement of paper PMC11208160", "data": [{"assay": "recombinant UMI read abundance after kanamycin selection (control-corrected) (log10(CPM+1)); higher = more efficient recombination; extreme values may be limits of the assay; sequences stand for … in AGTGCAGAGAAAATCGGCCAGTTTTCTCTGCCTGCAGTCCGCATGCCGTGGGACCCCTTGGGTTCTAACCTGTTGCCTAGATTTATGCAGCGGACTGCCTTTCTCCCAAAGTGATAAACCGG…AGGTTGGTTTCACT; site = the 11-nt donor", "method_in_brief": "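Sequencing read counts were converted to CPM, averaged over two replicates and scaled by control-derived factors. Results are given as log10(CPM+1). The reads covered the donor–target junction of recombinant UMIs from a pooled Escherichia coli screen of donor and donor-binding-loop pairs for the IS621 bridge recombinase.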", "values": [{"sequence": "GAAGATTCATGGACCGGTTTTCCCGGTAATCCGTATTTGTT (site GAAGAGTCTAA)", "recombinant UMI read abundance (log10)": 0.0122}, {"sequence": "GAAGATTCATGGACCGGTTTTCCCGGTAATCCGTATTTGTT (site GAAGATACTAA)", "recombinant UMI read abundance (log10)": 0.46}, {"sequence": "GAAGATTCATGGACCGGTTTTCCCGGTAATCCGTATTTGTT (site GAAGATCCTAA)", "recombinant UMI read abundance (log10)": 1.92}, {"sequence": "GAAGATTCATGGACCGGTTTTCCCGGTAATCCGTATTTGTT (site GAAGATGCTAA)", "recombinant UMI read abundance (log10)": 0.0075}, {"sequence": "GAAGATTCATGGACCGGTTTTCCCGGTAATCCGTATTTGTT (site GAAGATTCTAA)", "recombinant UMI read abundance (log10)": 2.86}, {"sequence": "GAAGATTCATGGACCGGTTTTCCCGGTAATCCGTATTTGTT (site GAAGATTCTAC)", "recombinant UMI read abundance (log10)": 0.242}, {"sequence": "GAAGATTCATGGACCGGTTTTCCCGGTAATCCGTATTTGTT (site GAAGATTCTAG)", "recombinant UMI read abundance (log10)": 0.838}, {"sequence": "GAAGATTCATGGACCGGTTTTCCCGGTAATCCGTATTTGTT (site GAAGATTCTAT)", "recombinant UMI read abundance (log10)": 1.5}, {"sequence": "GAAGATTCATGGACCGGTTTTCCCGGTAATCCGTATTTGTT (site GAAGATTCTCA)", "recombinant UMI read abundance (log10)": 0.868}, {"sequence": "GAAGATTCATGGACCGGTTTTCCCGGTAATCCGTATTTGTT (site GAAGATTCTGA)", "recombinant UMI read abundance (log10)": 0}, {"sequence": "GAAGATTCATGGACCGGTTTTCCCGGTAATCCGTATTTGTT (site GAAGATTCTTA)", "recombinant UMI read abundance (log10)": 1.2}, {"sequence": "GAAGATTCATGGACCGGTTTTCCCGGTAATCCGTATTTGTT (site GAAGCTTCTAA)", "recombinant UMI read abundance (log10)": 0.0109}, {"sequence": "GAAGATTCATGGACCGGTTTTCCCGGTAATCCGTATTTGTT (site GAAGGTTCTAA)", "recombinant UMI read abundance (log10)": 0.0539}, {"sequence": "GAAGATTCATGGACCGGTTTTCCCGGTAATCCGTATTTGTT (site GAAGTTTCTAA)", "recombinant UMI read abundance (log10)": 0}, {"sequence": "GAAGATTCATGGACCGGTTTTCCCGGTAATCCGTATTTGTT (site GAATATTCTAA)", "recombinant UMI read abundance (log10)": 0}, {"sequence": "GAAGATTCATGGACCGGTTTTCCCGGTAATCCGTATTTGTT (site GACGATTCTAA)", "recombinant UMI read abundance (log10)": 0}, {"sequence": "GAAGATTCATGGACCGGTTTTCCCGGTAATCCGTATTTGTT (site GAGGATTCTAA)", "recombinant UMI read abundance (log10)": 0}, {"sequence": "GAAGATTCATGGACCGGTTTTCCCGGTAATCCGTATTTGTT (site GATGATTCTAA)", "recombinant UMI read abundance (log10)": 0.296}, {"sequence": "GAAGATTCATGGACCGGTTTTCCCGGTAATCCGTATTTGTT (site GCAGATTCTAA)", "recombinant UMI read abundance (log10)": 0.013}, {"sequence": "GAAGATTCATGGACCGGTTTTCCCGGTAATCCGTATTTGTT (site GGAGATTCTAA)", "recombinant UMI read abundance (log10)": 0.379}, {"sequence": "GAAGATTCATGGACCGGTTTTCCCGGTAATCCGTATTTGTT (site GTAGATTCTAA)", "recombinant UMI read abundance (log10)": 0.39}, {"sequence": "GAAGATTCATGGACCGGTTTTCCCGGTAATCCGTATTTGTT (site TAAGATTCTAA)", "recombinant UMI read abundance (log10)": 2.36}, {"sequence": "GAAGCAACATGGACCGGTTTTCCCGGTAATCCGTATTTGCC (site GAAGCAACTGG)", "recombinant UMI read abundance (log10)": 2.09}, {"sequence": "GAAGCTTCATGGACCGGTTTTCCCGGTAATCCGTATTTGTT (site GAAGATTCTAA)", "recombinant UMI read abundance (log10)": 0}, {"sequence": "GAAGCTTCATGGACCGGTTTTCCCGGTAATCCGTATTTGTT (site GAAGCTTCTAA)", "recombinant UMI read abundance (log10)": 1.74}, {"sequence": "GAAGCTTCATGGACCGGTTTTCCCGGTAATCCGTATTTGTT (site GAAGGTTCTAA)", "recombinant UMI read abundance (log10)": 0}, {"sequence": "GAAGCTTCATGGACCGGTTTTCCCGGTAATCCGTATTTGTT (site GAAGTTTCTAA)", "recombinant UMI read abundance (log10)": 0}, {"sequence": "GAAGTATCATGGACCGGTTTTCCCGGTAATCCGTATTTGCA (site ACAGTATCTTG)", "recombinant UMI read abundance (log10)": 1.54}, {"sequence": "GAAGTATCATGGACCGGTTTTCCCGGTAATCCGTATTTGCA (site GAAGTATCTTG)", "recombinant UMI read abundance (log10)": 2.6}, {"sequence": "GAATATGCATGGACCGGTTTTCCCGGTAATCCGTATTTGAA (site GAATATGCTTT)", "recombinant UMI read abundance (log10)": 2.09}, {"sequence": "GAATCCGCATGGACCGGTTTTCCCGGTAATCCGTATTTGTC (site GAATCCGCTGA)", "recombinant UMI read abundance (log10)": 2.15}, {"sequence": "GAATCTACATGGACCGGTTTTCCCGGTAATCCGTATTTGCG (site GAATCTACTCG)", "recombinant UMI read abundance (log10)": 1.04}, {"sequence": "GAATGAGCATGGACCGGTTTTCCCGGTAATCCGTATTTGGA (site GAATGAGCTTC)", "recombinant UMI read abundance (log10)": 1.28}, {"sequence": "GAATGCCCATGGACCGGTTTTCCCGGTAATCCGTATTTGCA (site GAATGACCTTG)", "recombinant UMI read abundance (log10)": 0}, {"sequence": "GAATGCCCATGGACCGGTTTTCCCGGTAATCCGTATTTGCA (site GAATGCCCTTG)", "recombinant UMI read abundance (log10)": 1.25}, {"sequence": "GAATGCCCATGGACCGGTTTTCCCGGTAATCCGTATTTGCA (site GAATGGCCTTG)", "recombinant UMI read abundance (log10)": 0}, {"sequence": "GAATGCCCATGGACCGGTTTTCCCGGTAATCCGTATTTGCA (site GAATGTCCTTG)", "recombinant UMI read abundance (log10)": 0}, {"sequence": "GAATGTCCATGGACCGGTTTTCCCGGTAATCCGTATTTGCA (site GAATGACCTTG)", "recombinant UMI read abundance (log10)": 0}, {"sequence": "GAATGTCCATGGACCGGTTTTCCCGGTAATCCGTATTTGCA (site GAATGCCCTTG)", "recombinant UMI read abundance (log10)": 0}, {"sequence": "GAATGTCCATGGACCGGTTTTCCCGGTAATCCGTATTTGCA (site GAATGGCCTTG)", "recombinant UMI read abundance (log10)": 0}, {"sequence": "GAATGTCCATGGACCGGTTTTCCCGGTAATCCGTATTTGCA (site GAATGTCCTTG)", "recombinant UMI read abundance (log10)": 1.28}, {"sequence": "GAATTCCCATGGACCGGTTTTCCCGGTAATCCGTATTTGCT (site AAATTCCCTAG)", "recombinant UMI read abundance (log10)": 0}, {"sequence": "GAATTCCCATGGACCGGTTTTCCCGGTAATCCGTATTTGCT (site CAATTCCCTAG)", "recombinant UMI read abundance (log10)": 0.484}, {"sequence": "GAATTCCCATGGACCGGTTTTCCCGGTAATCCGTATTTGCT (site GAATTCCCTAG)", "recombinant UMI read abundance (log10)": 0.671}, {"sequence": "GAATTCCCATGGACCGGTTTTCCCGGTAATCCGTATTTGCT (site TAATTCCCTAG)", "recombinant UMI read abundance (log10)": 0.902}, {"sequence": "GACAAACCATGGACCGGTTTTCCCGGTAATCCGTATTTGGC (site GACAAACCTAC)", "recombinant UMI read abundance (log10)": 0}, {"sequence": "GACAAACCATGGACCGGTTTTCCCGGTAATCCGTATTTGGC (site GACAAACCTCC)", "recombinant UMI read abundance (log10)": 0}, {"sequence": "GACAAACCATGGACCGGTTTTCCCGGTAATCCGTATTTGGC (site GACAAACCTGC)", "recombinant UMI read abundance (log10)": 0}, {"sequence": "GACAAACCATGGACCGGTTTTCCCGGTAATCCGTATTTGGC (site GACAAACCTTC)", "recombinant UMI read abundance (log10)": 0}, {"sequence": "GACAAAGCATGGACCGGTTTTCCCGGTAATCCGTATTTGGT (site GACAAAACTAC)", "recombinant UMI read abundance (log10)": 0.00355}, {"sequence": "GACAAAGCATGGACCGGTTTTCCCGGTAATCCGTATTTGGT (site GACAAACCTAC)", "recombinant UMI read abundance (log10)": 0}, {"sequence": "GACAAAGCATGGACCGGTTTTCCCGGTAATCCGTATTTGGT (site GACAAAGCTAC)", "recombinant UMI read abundance (log10)": 1.13}, {"sequence": "GACAAAGCATGGACCGGTTTTCCCGGTAATCCGTATTTGGT (site GACAAATCTAC)", "recombinant UMI read abundance (log10)": 0}, {"sequence": "GACAAGACATGGACCGGTTTTCCCGGTAATCCGTATTTGTG (site GACAAGACTCA)", "recombinant UMI read abundance (log10)": 1.73}, {"sequence": "GACAATACATGGACCGGTTTTCCCGGTAATCCGTATTTGGC (site GACAATACTGC)", "recombinant UMI read abundance (log10)": 1.59}, {"sequence": "GACACGCCATGGACCGGTTTTCCCGGTAATCCGTATTTGTA (site GACACGCCTTA)", "recombinant UMI read abundance (log10)": 0.0256}, {"sequence": "GACACGCCATGGACCGGTTTTCCCGGTAATCCGTATTTGTA (site GCCACGCCTTA)", "recombinant UMI read abundance (log10)": 0.176}, {"sequence": "GACACGCCATGGACCGGTTTTCCCGGTAATCCGTATTTGTA (site GGCACGCCTTA)", "recombinant UMI read abundance (log10)": 0.00761}, {"sequence": "GACACGCCATGGACCGGTTTTCCCGGTAATCCGTATTTGTA (site GTCACGCCTTA)", "recombinant UMI read abundance (log10)": 0.0098}, {"sequence": "GACACGCCATGGACCGGTTTTCCCGGTAATCCGTATTTGTG (site GACACGCCTCA)", "recombinant UMI read abundance (log10)": 0.149}, {"sequence": "GACAGACCATGGACCGGTTTTCCCGGTAATCCGTATTTGGT (site GACAAACCTAC)", "recombinant UMI read abundance (log10)": 0}, {"sequence": "GACAGACCATGGACCGGTTTTCCCGGTAATCCGTATTTGGT (site GACACACCTAC)", "recombinant UMI read abundance (log10)": 0.00419}, {"sequence": "GACAGACCATGGACCGGTTTTCCCGGTAATCCGTATTTGGT (site GACAGACCTAC)", "recombinant UMI read abundance (log10)": 0.0145}, {"sequence": "GACAGACCATGGACCGGTTTTCCCGGTAATCCGTATTTGGT (site GACATACCTAC)", "recombinant UMI read abundance (log10)": 0}, {"sequence": "GACATACCATGGACCGGTTTTCCCGGTAATCCGTATTTGGC (site GACATACCTGC)", "recombinant UMI read abundance (log10)": 0}, {"sequence": "GACCCATCATGGACCGGTTTTCCCGGTAATCCGTATTTGGA (site GACCCATCTTC)", "recombinant UMI read abundance (log10)": 1.26}, {"sequence": "GACCGGGCATGGACCGGTTTTCCCGGTAATCCGTATTTGAT (site GACCGGGCTAT)", "recombinant UMI read abundance (log10)": 0.662}, {"sequence": "GACCGTCCATGGACCGGTTTTCCCGGTAATCCGTATTTGAT (site AACCGTCCTAT)", "recombinant UMI read abundance (log10)": 0}, {"sequence": "GACCGTCCATGGACCGGTTTTCCCGGTAATCCGTATTTGAT (site CACCGTCCTAT)", "recombinant UMI read abundance (log10)": 0.00334}, {"sequence": "GACCGTCCATGGACCGGTTTTCCCGGTAATCCGTATTTGAT (site GACCGTCCTAT)", "recombinant UMI read abundance (log10)": 0.0192}, {"sequence": "GACCGTCCATGGACCGGTTTTCCCGGTAATCCGTATTTGAT (site TACCGTCCTAT)", "recombinant UMI read abundance (log10)": 0.0517}, {"sequence": "GACCTCACATGGACCGGTTTTCCCGGTAATCCGTATTTGTA (site GACCTCACTTA)", "recombinant UMI read abundance (log10)": 0.0239}, {"sequence": "GACGAAACATGGACCGGTTTTCCCGGTAATCCGTATTTGTA (site GACGAAACTTA)", "recombinant UMI read abundance (log10)": 2.54}, {"sequence": "GACGAAGCATGGACCGGTTTTCCCGGTAATCCGTATTTGCT (site GACGAAGCTAG)", "recombinant UMI read abundance (log10)": 2.11}, {"sequence": "GACGCCACATGGACCGGTTTTCCCGGTAATCCGTATTTGAA (site GACGCCACTTT)", "recombinant UMI read abundance (log10)": 0.827}]}]}
